Measured values: US7785879B1, “Pregnane X receptor compositions, crystals and uses thereof” (Schering Corporation, priority 2005, dated 2010)

What was measured:
[1] = molecular target: T1, PXR-LBD-L10-SRC (Homo sapiens, UniProt O75469); assay: Temperature-dependent circular dichroism, stabilization of PXR-LBD-L10-SRC; conditions: 25 uM compound
T1 sequence (O75469 with tags, fused parts or gaps): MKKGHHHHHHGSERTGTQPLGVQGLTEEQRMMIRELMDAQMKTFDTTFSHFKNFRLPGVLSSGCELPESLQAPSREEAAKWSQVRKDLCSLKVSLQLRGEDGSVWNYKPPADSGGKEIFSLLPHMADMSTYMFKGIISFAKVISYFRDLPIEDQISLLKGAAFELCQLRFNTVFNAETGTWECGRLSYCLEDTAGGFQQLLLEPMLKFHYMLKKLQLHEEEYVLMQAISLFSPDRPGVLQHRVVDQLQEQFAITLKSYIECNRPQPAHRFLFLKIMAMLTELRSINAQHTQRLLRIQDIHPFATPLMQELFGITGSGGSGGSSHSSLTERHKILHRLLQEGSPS
Protocol: (§1) The CD is a function of wavelength.
(§2) PXR-LBD-L10-SRC was expressed and purified essentially as set forth above. […] Stabilization of PXR-LBD-L10-SRC in the presence of various substances was measured by temperature-dependent circular dichroism. PXR-LBD-L10-SRC was assayed under the following conditions:
(§3) Buffer: 25 mM Hepes, pH 7.9, 150 mM NaCl, 5% glycerol, 10 mM BME,
(§4) heating ramp at 2° C./min
(§5) temperature range: 30-80° C.

[2] = molecular target: T2, PXR (Homo sapiens, UniProt O75469); conditions: Table 2; read-out: reported Kd; cited from earlier work
T2 sequence (O75469 1-434): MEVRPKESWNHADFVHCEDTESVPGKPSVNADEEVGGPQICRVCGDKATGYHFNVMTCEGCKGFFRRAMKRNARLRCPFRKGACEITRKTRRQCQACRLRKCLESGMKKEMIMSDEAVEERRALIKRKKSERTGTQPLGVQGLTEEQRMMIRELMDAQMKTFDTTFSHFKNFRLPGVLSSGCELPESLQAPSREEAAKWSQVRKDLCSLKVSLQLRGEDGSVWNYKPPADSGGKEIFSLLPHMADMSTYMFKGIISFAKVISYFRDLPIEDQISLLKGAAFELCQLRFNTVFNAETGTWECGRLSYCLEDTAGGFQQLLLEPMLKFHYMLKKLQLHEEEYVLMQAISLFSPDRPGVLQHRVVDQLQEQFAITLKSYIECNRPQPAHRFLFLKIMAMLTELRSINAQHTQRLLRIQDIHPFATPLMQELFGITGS

[3] = molecular target: T3, human PXR-LBD-L10-SRC (SEQ ID NO: 24) (Homo sapiens, UniProt O75469); assay: Ligand binding assay (radioligand, filter plate); conditions: conclusion from the radioligand binding tables
T3 sequence (O75469 with tags, fused parts or gaps): T1 sequence (O75469 with tags, fused parts or gaps)
Protocol: Chemilluminescence can be detected, for example, in a scintillation counter (Packard Top-counter). Specifically, the bound complex can be contacted with scintillant and then analyzed for the occurrence of scintillation.
After one hour of incubation at room temperature, the mixture was transferred to an imobilon multiScreen filter plate (Millipore). The plate was washed five times with PBS and dried under vacuum. The dried plate was added Opti-Fluor Scitillation cocktail before counting in a Parkard Top-counter.

[4] = molecular target: T4, PXR (PXR-LBD-L10-SRC) (Homo sapiens, UniProt O75469); assay: Temperature-dependent circular dichroism, stabilization of PXR-LBD-L10-SRC; conditions: human, pH 7.9
T4 sequence (O75469 with tags, fused parts or gaps): T1 sequence (O75469 with tags, fused parts or gaps)
Protocol: as §1, §2, §3, §4, §5

Row | SMILES | Tm ([1]; 2.5 μM protein, 225 nm, apo enzyme Tm 52.9 ± 0.05) | ΔTm ([1]; vs PXR-LBD-L10-SRC apo enzyme) | Kd ([1]; from CD thermal denaturation) | Kd [2] | binding activity of PXR [3] | ΔTm at 25 µM [4]
1 | Clc1ccccc1C(c1ccccc1)(c1ccccc1)n1ccnc1 [Clotrimazole] | 58.5 C | 5.6 C | 200 nM | 300 nM | significant | 
2 | O=C1C(CC[S+]([O-])c2ccccc2)C(=O)N(c2ccccc2)N1c1ccccc1 (stereo not drawn) [sulfopyrole] |  |  |  |  |  | 2.3 °C
